The values that follow come from ChEMBL document CHEMBL3045967, “Discovery of imidazole glycerol phosphate dehydratase inhibitors through 3-D database searching” (Bioorg Med Chem Lett, 2002).

pIC50: −log10 of the molar value. Activity calls are given as the source filed them. The calls are words filed in the database; no cut-off is given here.

Sequence of Histidine biosynthesis bifunctional protein HisB (Escherichia coli O26:H11 str. CFSAN001629) (P06987 whole entry): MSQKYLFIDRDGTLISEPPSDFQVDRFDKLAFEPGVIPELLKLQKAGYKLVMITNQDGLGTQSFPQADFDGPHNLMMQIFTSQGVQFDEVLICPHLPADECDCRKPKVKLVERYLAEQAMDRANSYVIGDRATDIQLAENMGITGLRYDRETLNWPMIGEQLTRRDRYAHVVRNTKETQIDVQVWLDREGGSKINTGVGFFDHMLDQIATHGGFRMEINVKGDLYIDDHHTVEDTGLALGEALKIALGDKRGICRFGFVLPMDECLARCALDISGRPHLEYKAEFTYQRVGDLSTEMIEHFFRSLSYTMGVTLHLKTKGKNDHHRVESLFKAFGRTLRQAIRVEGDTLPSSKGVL

In one experiment the target is Histidine biosynthesis bifunctional protein HisB (Escherichia coli O26:H11 str. CFSAN001629, UniProt P06987). Nature of the experiment: (§1) Inhibition of Escherichia coli imidazoleglycerol phosphate dehydratase using imidazole glycerol phosphate as substrate incubated for 30 min prior to substrate addition measured for 16 min by spectrophotometric analysis.
Sequence of Histidine biosynthesis bifunctional protein HisB (P06987 whole entry): as above
As for `O=Cc1[nH]c(C(=O)OCc2ccccc2)c(Cc2ccccc2)c1Cc1ccccc1`, the pIC50 (commonly the IC50 on a negative log10 scale, so that one unit is a factor of ten) is 5.40.

On to `CCc1c(C=O)[nH]c(C(=O)OCc2ccccc2)c1C`, for which the pIC50 is 4.62.

In turn, `Cc1c(C=O)[nH]c(C(=O)OCc2ccccc2)c1C` gave a pIC50 of 5.05.

In turn, `CCOC(=O)CCc1c(C(=O)OCC)[nH]c(C=O)c1CC(=O)OCC` showed a negative-log IC50 (pIC50) of 4.90.

`COC(=O)c1[nH]c(C=O)c(C(=O)OC)c1C(C)C` gave a pIC50 of 5.08.

`CCOC(=O)c1[nH]c(C=O)c(C)c1C` gave a pIC50 of 4.75.

Molecule `CCOC(=O)c1[nH]c(C=O)c(C(=O)OCC)c1C` showed a negative-log IC50 (pIC50) of 5.29.

`Cc1c(C=O)[nH]c(C=O)c1C` gave a pIC50 of 5.15.

Take `CCOC(=O)c1[nH]c(C=O)c(C(=O)OCC)c1CC`: the negative-log IC50 (pIC50) is 5.25.

`CCOC(=O)c1[nH]c(C=O)cc1C` showed a negative logarithm of the IC50 (pIC50) of 5.04.

Another experiment concerns the target Histidine biosynthesis bifunctional protein HisB (Escherichia coli O26:H11 str. CFSAN001629) (UniProt P06987). The description is as §1.
As for `CCOC(=O)c1[nH]c(C)c(C(=O)OC)c1C`, the inhibition entry was “inactive”.
